# Results from patent US10695334B2, “Heteroaromatic carboxamide derivatives as plasma kallikrein inhibitors” (Boehringer Ingelheim International GmbH, priority 2018, dated 2020).
# Columns and labels:
# Type in all cases: biochemical
# human TK1 = human TK1 (Homo sapiens (Human), UniProt P06870); test: Inhibition of TK1 (Ki); conditions: column head prints IC50, text above the table says Ki values
# Protocol: The ability of compounds of formula (I) to inhibit plasma kallikrein (PKK), Factor Xlla (FXIIa), Factor Xla (FXIa), Factor Xa (FXa), Factor Ila (alpha-thrombin; FIIa), plasmin, trypsin, tissue kallikrein 1 (TK1), Factor VIIa (FVIIa), or FVIIa complexed with Tissue Factor, phospholipids and CaCl2 (FVIIa/TF/PL/CaCl2) was determined using the following biochemical assays in assay buffer (100 mM Tris, 150 mM NaCL, adjusted to a pH of 7.8 with HCl, and containing 0.1% (w/v) BSA and 0.05% (v/v) Tween20) in the presence of 1% (v/v) DMSO: EVALUATION OF THE INHIBITION OF PKK USING AN ENDPOINT ASSAY Human PKK (0.01 U/mL; Enzyme Research Laboratories) or rat PKK (0.625 nM; produced in-house) was incubated for 1 h at room temperature with 0.10 μM fluorogenic substrate H-Pro-Phe-Arg-AMC (11295 from Bachem) and various concentrations of the test compound in assay buffer. Subsequently, PPACK II (Calbiochem) was added as a stop solution to achieve a final concentration of 1 μM and fluorescence was measured using an Envision Reader (PerkinElmer) with the wavelength excitation setting of 355 nm and the wavelength emission setting of 460 nm.
# Prior to the assay, human TK1 (R&D Systems) was activated by incubation with human trypsin (Calbiochem) in a 1:10,000 ratio for 15 min at 37° C. For assaying TK1 inhibitory activity, activated TK1 (31.25 nM or 1 U/mL) was incubated at 24° C. with 0.1 mM fluorogenic substrate H-Pro-Phe-Arg-AMC (11295 from Bachem) and various concentrations of the test compound in assay buffer. Measurements were performed in a kinetic interval every 2nd minute for 16 min using a Spectramax M5 (Molecular Devices) with the following settings of the wavelength excitation of 350 nm and wavelength emission of 450 nm.
# The average Vmax values for the time interval from 2 to 12 min after initiation of the assay (expressed as either delta OD/min for assays using a chromogenic substrate or delta RFU/min for assays using a fluorigenic substrate, respectively) were plotted versus the Log of the concentration in molar of the evaluated inhibitor compound. The pIC50 values were then fitted using a four-parametric fitting procedure using GraphPad Prism (version 6; GraphPad Software, Inc.). Respective Ki values were obtained by correction of the IC50 values for the respective KM value of the used substrate (see Table A for the obtained KM values of the used substrates) using the following formula: […]
# (§1) Where the IC50 is in molar and the KM value in mM.
# Human PKK [1] = biological target: T1, Human PKK (Homo sapiens (Human), UniProt P03952); test: Inhibition of PKK, endpoint assay (human PKK); conditions: substrate H-Pro-Phe-Arg-AMC, 1 h room temperature
# Protocol: Subsequently, PPACK II (Calbiochem) was added as a stop solution to achieve a final concentration of 1 μM and fluorescence was measured using an Envision Reader (PerkinElmer) with the wavelength excitation setting of 355 nm and the wavelength emission setting of 460 nm.
# [2] = biological target: PKK in kaolin activated human platelet poor plasma (Homo sapiens (Human), UniProt P03952); test: Inhibition of PKK in kaolin activated human PPP; conditions: global fit over 25, 75, 250, 750 μg/mL kaolin
# Protocol: Platelet poor plasma (PPP) obtained from human wholeblood, anticoagulated with Na-Citrat, was incubated with various concentrations of the test compound together with either 25, 75, 250, or 750 μg/mL kaolin in assay buffer for 20 min at 37° C. such that for each kaolin dose used a concentration response was obtained for the test compound.
# Human PKK [3] = biological target: T1, Human PKK; test: Inhibition of PKK (Ki), kinetic assay; conditions: 24° C., IC50 corrected for KM
# Protocol: Measurements were performed in a kinetic interval every 2nd minute for 16 min using a Spectramax M5 (Molecular Devices) with the following settings of the wavelength excitation of 350 nm and wavelength emission of 450 nm. The number of the compound corresponds to the number of the Example in the experimental section.
# The pIC50 values were then fitted using a four-parametric fitting procedure using GraphPad Prism (version 6; GraphPad Software, Inc.).
# as §1
# human TK1, sequence (P06870 25-262): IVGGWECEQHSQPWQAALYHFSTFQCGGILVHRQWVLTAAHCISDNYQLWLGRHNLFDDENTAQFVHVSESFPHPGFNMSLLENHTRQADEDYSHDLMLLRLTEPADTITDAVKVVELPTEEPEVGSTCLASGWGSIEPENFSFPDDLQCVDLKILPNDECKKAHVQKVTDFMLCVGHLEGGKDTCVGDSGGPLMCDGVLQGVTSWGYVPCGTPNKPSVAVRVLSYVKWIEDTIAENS
# PKK in kaolin activated human platelet poor plasma, sequence (P03952 391-638): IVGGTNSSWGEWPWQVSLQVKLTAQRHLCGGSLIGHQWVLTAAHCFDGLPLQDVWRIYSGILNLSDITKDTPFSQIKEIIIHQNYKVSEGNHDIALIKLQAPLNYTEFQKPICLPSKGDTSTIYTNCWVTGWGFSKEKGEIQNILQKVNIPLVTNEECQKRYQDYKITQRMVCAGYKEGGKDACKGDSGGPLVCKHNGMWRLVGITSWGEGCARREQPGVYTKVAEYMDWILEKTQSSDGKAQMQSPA
# PKK in kaolin activated human platelet poor plasma, sequence (P03952 20-390 partner): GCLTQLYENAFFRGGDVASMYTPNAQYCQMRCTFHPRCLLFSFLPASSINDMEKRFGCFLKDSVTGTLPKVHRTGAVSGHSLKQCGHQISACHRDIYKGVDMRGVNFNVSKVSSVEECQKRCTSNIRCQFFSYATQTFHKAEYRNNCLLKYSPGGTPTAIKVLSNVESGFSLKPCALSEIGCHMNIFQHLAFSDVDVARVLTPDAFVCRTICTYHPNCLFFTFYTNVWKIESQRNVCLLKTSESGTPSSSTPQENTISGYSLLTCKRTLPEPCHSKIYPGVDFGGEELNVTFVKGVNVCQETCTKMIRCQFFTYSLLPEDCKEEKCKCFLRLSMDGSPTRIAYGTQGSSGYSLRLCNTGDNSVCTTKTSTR
# T1 sequence (P03952 391-638): as the sequence (P03952 391-638) above
# T1 sequence (P03952 20-390 partner): as the sequence (P03952 20-390 partner) above
Structure (SMILES),IC50 (human TK1) [nM],IC50 (Human PKK [1]) [nM],IC90 [2] [nM],Ki (Human PKK [3]) [nM]
"Cc1nc(N2C[C@@H]3[C@H](CO)[C@@H]3C2)ccc1Cn1cnc(C(=O)N[C@@H]2CCc3c2n[nH]c3C)c1 (stereo in doubt) [Example 99, 1-({6-[(1R,5S,6S)-6-(Hydroxymethyl)-3-aza-bicyclo[3.1.0]hexan-3-yl]-2-methylpyridin-3-yl}-methyl)-N-[(6R)-3-methyl-2H,4H,5H,6H-cyclo-penta[c]pyrazol-6-yl]-1H-imidazole-4-carboxamide]",> 10000,1,388,1
"Cc1nc(N2CC3CC3C2)ccc1Cn1cc(C(=O)NC2CCc3c(C)n[nH]c32)cn1 (stereo not shown) [Example 1, 1-[(6-{3-Azabicyclo[3.1.0]hexan-3-yl}-2-methylpyridin-3-yl)methyl]-N-{3-methyl-1H,4H,5H,6H-cyclopenta[c]pyrazol-6-yl}-1H-pyrazole-4-carboxamide]",> 10000,2,705,1
"Cc1nc(N2CC3CC3C2)ccc1Cn1cc(C(=O)N[C@@H]2CCc3c(C)n[nH]c32)cn1 (stereo partly drawn) [Example 3, 1-[(6-{3-Azabicyclo[3.1.0]hexan-3-yl}-2-methylpyridin-3-yl)methyl]-N-[(6R)-3-methyl-1H,4H,5H,6H-cyclopenta[c]pyrazol-6-yl]-1H-pyrazole-4-carboxamide]",> 10000,0.8,679,0.5
"Cc1nc(N2CC3C(C2)C3(F)F)ccc1Cn1cc(C(=O)N[C@@H]2CCc3c(C)n[nH]c32)cn1 (stereo partly drawn) [Example 5, 1-[(6-{6,6-Difluoro-3-azabicyclo[3.1.0]hexan-3-yl}-2-methylpyridin-3-yl)methyl]-N-[(6R)-3-methyl-1H,4H,5H,6H-cyclopenta[c]pyrazol-6-yl]-1H-pyrazole-4-carboxamide]",> 10000,0.6,241,0.3
"Cc1nc(N2CC3CC3C2)ccc1Cc1csc(C(=O)N[C@@H]2CCc3c(C)n[nH]c32)c1 (stereo partly drawn) [Example 6, 4-[(6-{3-Azabicyclo[3.1.0]hexan-3-yl}-2-methylpyridin-3-yl)methyl]-N-[(6R)-3-methyl-1H,4H,5H,6H-cyclopenta[c]pyrazol-6-yl]thiophene-2-carboxamide]",> 10000,0.7,291,0.5
"Cc1nc(N2CC3CC3C2)ccc1Cc1c[nH]c(C(=O)N[C@@H]2CCc3c(C)n[nH]c32)c1 (stereo partly drawn) [Example 7, 4-[(6-{3-Azabicyclo[3.1.0]hexan-3-yl}-2-methylpyridin-3-yl)methyl]-N-[(6R)-3-methyl-1H,4H,5H,6H-cyclopenta[c]pyrazol-6-yl]-1H-pyrrole-2-carboxamide]",> 10000,1,342,0.7
"Cc1nc(N2CC3CC3C2)ccc1Cc1cc(C(=O)N[C@@H]2CCc3c(C)n[nH]c32)sc1C#N (stereo partly drawn) [Example 8, 4-[(6-{3-Azabicyclo[3.1.0]hexan-3-yl}-2-methylpyridin-3-yl)methyl]-5-cyano-N-[(6R)-3-methyl-1H,4H,5H,6H-cyclopenta[c]pyrazol-6-yl]thiophene-2-carboxamide]",> 10000,4,1820,3
"Cc1nc(N2CC3CC3C2)ccc1Cn1nnc(C(=O)N[C@@H]2CCc3c(C)n[nH]c32)n1 (stereo partly drawn) [Example 9, 2-[(6-{3-Azabicyclo[3.1.0]hexan-3-yl}-2-methylpyridin-3-yl)methyl]-N-[(6R)-3-methyl-1H,4H,5H,6H-cyclopenta[c]pyrazol-6-yl]-2H-1,2,3,4-tetrazole-5-carboxamide]",> 10000,7,3480,5
"Cc1nc(N2CC3CC3C2)ccc1Cn1cc(C(=O)N[C@@H]2CCc3c(C)n[nH]c32)c(Cl)n1 (stereo partly drawn) [Example 12, 1-[(6-{3-Azabicyclo[3.1.0]hexan-3-yl}-2-methylpyridin-3-yl)methyl]-3-chloro-N-[(6R)-3-methyl-1H,4H,5H,6H-cyclopenta[c]pyrazol-6-yl]-1H-pyrazole-4-carboxamide]",> 10000,1,3090,2
"Cc1nc(N2CCC(C)(C)C2)ccc1Cn1cc(C(=O)N[C@@H]2CCc3c2n[nH]c3C)cn1 [Example 35, 1{[6-(3,3-Dimethylpyrrolidin-1-yl)-2-methylpyridin-3-yl]methyl}-N-[(6R)-3-methyl-2H,4H,5H,6H-cyclopenta[c]pyrazol-6-yl]-1H-pyrazole-4-carboxamide]",> 10000,2,2010,0.9
"Cc1nc(N2CCC3(CCC3)C2)ccc1Cn1cc(C(=O)N[C@@H]2CCc3c2n[nH]c3C)cn1 [Example 36, 1-[(6-{6-Azaspiro[3.4]octan-6-yl}-2-methylpyridin-3-yl)methyl]-N-[(6R)-3-methyl-2H,4H,5H,6H-cyclopenta[c]pyrazol-6-yl]-1H-pyrazole-4-carboxamide]",> 10000,4,4670,1
"Cc1nc(N2CCC(F)(F)C2)ccc1Cn1cc(C(=O)N[C@@H]2CCc3c2n[nH]c3C)cn1 [Example 37, 1-{[6-(3,3-Difluoropyrrolidin-1-yl)-2-methylpyridin-3-yl]methyl}-N-[(6R)-3-methyl-2H,4H,5H,6H-cyclopenta[c]pyrazol-6-yl]-1H-pyrazole-4-carboxamide]",> 10000,7,4980,2
"Cc1nc(N2CCC(C(F)F)C2)ccc1Cn1cc(C(=O)N[C@@H]2CCc3c2n[nH]c3C)cn1 (stereo partly drawn) [Example 46, 1-({6-[3-(Difluoromethyl)pyrrolidin-1-yl]-2-methylpyridin-3-yl}methyl)-N-[(6R)-3-methyl-2H,4H,5H,6H-cyclopenta[c]pyrazol-6-yl]-1H-pyrazole-4-carboxamide]",> 10000,4,2840,1
"Cc1nc(N2C[C@@H]3[C@H](C)[C@@H]3C2)ccc1Cn1cc(C(=O)N[C@@H]2CCc3c2n[nH]c3C)cn1 [Example 47, N-[(6R)-3-Methyl-2H,4H,5H,6H-cyclopenta[c]pyrazol-6-yl]-1-({2-methyl-6-[(1R,5S,6S)-6-methyl-3-azabicyclo[3.1.0]hexan-3-yl]pyridin-3-yl}methyl)-1H-pyrazole-4-carboxamide]",> 10000,0.9,445,0.4
"Cc1nc(N2CCCC2)ccc1Cn1cc(C(=O)N[C@@H]2CCc3c2n[nH]c3C)cn1 [Example 52, N-[(6R)-3-Methyl-2H,4H,5H,6H-cyclopenta[c]pyrazol-6-yl]-1-{[2-methyl-6-(pyrrolidin-1-yl)pyridin-3-yl]methyl}-1H-pyrazole-4-carboxamide]",> 10000,4,5120,1
"Cc1nc(N2CC3(CCC3)C2)ccc1Cn1cc(C(=O)N[C@@H]2CCc3c2n[nH]c3C)cn1 [Example 54, 1-[(6-{2-Azaspiro[3.31]heptan-2-yl}-2-methylpyridin-3-yl)methyl]-N-[(6R)-3-methyl-2H,4H,5H,6H-cyclopenta[c]pyrazol-6-yl]-1H-pyrazole-4-]",> 10000,2,944,1
